In patent US20120270237A9, “METHODS FOR THE IDENTIFICATION OF KINASE INTERACTING MOLECULES AND FOR THE PURIFICATION OF KINASE PROTEINS” (Cellzone AG, priority 2009, published 2012):

Biological target: T1, MAP3K5 (Homo sapiens, UniProt Q99683)
T1 sequence (Q99683 1-1374): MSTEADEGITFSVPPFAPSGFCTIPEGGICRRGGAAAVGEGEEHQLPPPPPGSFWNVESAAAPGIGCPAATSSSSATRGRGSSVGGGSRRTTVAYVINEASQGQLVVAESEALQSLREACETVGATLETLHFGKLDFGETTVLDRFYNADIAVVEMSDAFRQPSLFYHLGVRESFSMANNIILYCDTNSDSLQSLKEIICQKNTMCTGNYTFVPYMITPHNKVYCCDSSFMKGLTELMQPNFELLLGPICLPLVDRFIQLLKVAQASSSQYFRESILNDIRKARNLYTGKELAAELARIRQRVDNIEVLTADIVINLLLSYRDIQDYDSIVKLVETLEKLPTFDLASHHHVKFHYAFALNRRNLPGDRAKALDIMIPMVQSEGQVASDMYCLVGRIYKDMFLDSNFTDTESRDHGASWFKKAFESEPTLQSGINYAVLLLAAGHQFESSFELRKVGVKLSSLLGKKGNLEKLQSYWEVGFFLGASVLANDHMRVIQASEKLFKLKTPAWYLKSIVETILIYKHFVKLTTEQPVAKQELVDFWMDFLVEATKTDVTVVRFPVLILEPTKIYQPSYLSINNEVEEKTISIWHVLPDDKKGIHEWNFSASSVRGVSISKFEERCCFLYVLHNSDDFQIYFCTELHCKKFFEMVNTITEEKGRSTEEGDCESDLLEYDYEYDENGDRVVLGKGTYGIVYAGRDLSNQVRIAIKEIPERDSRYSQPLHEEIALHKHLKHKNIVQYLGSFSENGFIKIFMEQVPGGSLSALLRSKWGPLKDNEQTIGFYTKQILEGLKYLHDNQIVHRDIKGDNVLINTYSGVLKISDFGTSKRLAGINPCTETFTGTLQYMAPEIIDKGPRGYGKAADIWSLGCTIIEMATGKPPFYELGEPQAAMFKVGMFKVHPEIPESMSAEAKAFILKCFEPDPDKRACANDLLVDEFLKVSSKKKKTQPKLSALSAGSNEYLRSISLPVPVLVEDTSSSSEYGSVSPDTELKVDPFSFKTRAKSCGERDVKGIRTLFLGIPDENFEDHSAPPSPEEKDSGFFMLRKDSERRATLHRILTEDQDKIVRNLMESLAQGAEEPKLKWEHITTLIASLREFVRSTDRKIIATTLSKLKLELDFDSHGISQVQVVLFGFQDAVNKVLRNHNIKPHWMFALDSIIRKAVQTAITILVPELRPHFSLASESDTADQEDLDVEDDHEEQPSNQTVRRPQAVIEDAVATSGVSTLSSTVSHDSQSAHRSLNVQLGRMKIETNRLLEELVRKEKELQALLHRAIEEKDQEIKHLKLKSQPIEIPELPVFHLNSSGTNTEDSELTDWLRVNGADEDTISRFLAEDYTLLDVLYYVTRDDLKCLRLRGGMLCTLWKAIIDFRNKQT
Assay: Kinobeads competition binding, HL60 cell lysate
Parameters: endogenous in cells; host or cells: HL60 cell lysate
Settings: 10 μM free compound
Protocol: To one aliquot of cell lysate 10 μM of the free compound (FIG. 3, CZC31326) was added and allowed to bind to proteins in the lysate. Then the affinity matrix with the immobilized compound (Example 1) was added to capture proteins that were not interacting with the previously added free compound. Beads were separated from the lysate and bead bound proteins were eluted in SDS sample buffer and subsequently separated by SDS-Polyacrylamide gel electrophoresis (FIG. 4). Suitable gel bands were cut out and subjected to in-gel proteolytic digestion with trypsin. The second lysate aliquot was processed identically, however no free compound was added (DMSO solvent control). Peptides originating from samples 1 and 2 were labeled with iTRAQ reagents (iTRAQ 114 and iTRAQ 117) and the combined samples were analyzed with a nano-flow liquid chromatography system coupled online to a tandem mass spectrometer (LC-MS/MS) experiment followed by iTRAQ reporter ion quantification in the MS/MS spectra (Ross et al., 2004. Mol. Cell. Proteomics 3(12):1154-1169). Further experimental protocols can be found in WO2006/134056 and a previous publication (Bantscheff et al., 2007. Nature Biotechnology 25, 1035-1044). Sepharose-beads with the immobilized compound (100 μl beads per pull-down experiment) were equilibrated in lysis buffer and incubated with a cell lysate sample containing 50 mg of protein on an end-over-end shaker (Roto Shake Genie, Scientific Industries Inc.) for 2 hours at 4° C. […] The iTRAQ reagents are a set of multiplexed, amine-specific, stable isotope reagents that can label peptides on amino groups in up to four different biological samples enabling simultaneous identification and quantitation of peptides. […] Relative protein quantitation was performed using peak areas of iTRAQ reporter ion signals essentially as described in an earlier publication (Bantscheff et al., 2007. Nature Biotechnology 25, 1035-1044).

An inhibition at 10 µM of 88.4% was found for CS(=O)(=O)Nc1ccccc1Nc1nc(Nc2cccc(OCCN)c2)ncc1Cl [CZC31326, N-(2-(2-(3-(2-aminoethoxy)phenylamino)-5-chloropyrimidin-4-ylamino)phenyl)methanesulfonamide] in this work.
